Assay results taken from publication doi:10.1101/706168v1 (biorxiv, 2019).

Assays:
[1] = target: TASK-1 (K2P3.1), wild type (Homo sapiens, UniProt O14649); assay: two-electrode voltage clamp, Xenopus oocytes; type: cell-based
EAG1 = target: T1, EAG1 (Homo sapiens, UniProt O95259); assay: cell-based
T1 sequence (O95259 1-989): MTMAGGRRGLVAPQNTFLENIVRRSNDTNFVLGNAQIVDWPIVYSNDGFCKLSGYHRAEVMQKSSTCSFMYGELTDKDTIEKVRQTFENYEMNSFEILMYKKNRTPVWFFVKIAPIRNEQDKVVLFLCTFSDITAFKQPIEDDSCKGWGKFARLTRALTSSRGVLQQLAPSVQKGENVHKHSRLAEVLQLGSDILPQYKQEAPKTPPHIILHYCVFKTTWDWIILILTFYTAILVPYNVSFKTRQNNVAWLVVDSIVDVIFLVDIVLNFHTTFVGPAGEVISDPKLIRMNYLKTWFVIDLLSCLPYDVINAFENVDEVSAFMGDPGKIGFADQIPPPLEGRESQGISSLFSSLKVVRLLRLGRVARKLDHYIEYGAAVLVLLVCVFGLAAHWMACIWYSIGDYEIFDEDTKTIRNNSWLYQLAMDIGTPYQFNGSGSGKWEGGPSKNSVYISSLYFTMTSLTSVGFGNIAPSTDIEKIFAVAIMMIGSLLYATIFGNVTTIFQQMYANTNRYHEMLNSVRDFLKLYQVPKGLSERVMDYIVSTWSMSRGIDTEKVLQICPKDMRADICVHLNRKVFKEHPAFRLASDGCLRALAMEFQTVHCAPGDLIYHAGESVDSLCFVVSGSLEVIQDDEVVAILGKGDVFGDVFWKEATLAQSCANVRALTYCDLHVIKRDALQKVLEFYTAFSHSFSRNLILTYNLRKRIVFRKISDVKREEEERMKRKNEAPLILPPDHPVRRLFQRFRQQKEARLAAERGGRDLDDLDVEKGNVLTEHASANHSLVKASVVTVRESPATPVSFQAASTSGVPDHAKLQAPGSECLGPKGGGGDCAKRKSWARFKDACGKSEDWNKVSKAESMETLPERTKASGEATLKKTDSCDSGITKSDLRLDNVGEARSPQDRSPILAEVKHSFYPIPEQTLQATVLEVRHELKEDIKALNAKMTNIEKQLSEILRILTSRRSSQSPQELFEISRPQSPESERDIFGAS

TRPA1 = TRPA1 (Homo sapiens, UniProt O75762); assay: cell-based
TRPV4 = TRPV4 (Homo sapiens, UniProt Q9HBA0); assay: cell-based
HCN4 = target: T2, HCN4 (Homo sapiens, UniProt Q9Y3Q4); assay: cell-based
T2 sequence (Q9Y3Q4 1-1203): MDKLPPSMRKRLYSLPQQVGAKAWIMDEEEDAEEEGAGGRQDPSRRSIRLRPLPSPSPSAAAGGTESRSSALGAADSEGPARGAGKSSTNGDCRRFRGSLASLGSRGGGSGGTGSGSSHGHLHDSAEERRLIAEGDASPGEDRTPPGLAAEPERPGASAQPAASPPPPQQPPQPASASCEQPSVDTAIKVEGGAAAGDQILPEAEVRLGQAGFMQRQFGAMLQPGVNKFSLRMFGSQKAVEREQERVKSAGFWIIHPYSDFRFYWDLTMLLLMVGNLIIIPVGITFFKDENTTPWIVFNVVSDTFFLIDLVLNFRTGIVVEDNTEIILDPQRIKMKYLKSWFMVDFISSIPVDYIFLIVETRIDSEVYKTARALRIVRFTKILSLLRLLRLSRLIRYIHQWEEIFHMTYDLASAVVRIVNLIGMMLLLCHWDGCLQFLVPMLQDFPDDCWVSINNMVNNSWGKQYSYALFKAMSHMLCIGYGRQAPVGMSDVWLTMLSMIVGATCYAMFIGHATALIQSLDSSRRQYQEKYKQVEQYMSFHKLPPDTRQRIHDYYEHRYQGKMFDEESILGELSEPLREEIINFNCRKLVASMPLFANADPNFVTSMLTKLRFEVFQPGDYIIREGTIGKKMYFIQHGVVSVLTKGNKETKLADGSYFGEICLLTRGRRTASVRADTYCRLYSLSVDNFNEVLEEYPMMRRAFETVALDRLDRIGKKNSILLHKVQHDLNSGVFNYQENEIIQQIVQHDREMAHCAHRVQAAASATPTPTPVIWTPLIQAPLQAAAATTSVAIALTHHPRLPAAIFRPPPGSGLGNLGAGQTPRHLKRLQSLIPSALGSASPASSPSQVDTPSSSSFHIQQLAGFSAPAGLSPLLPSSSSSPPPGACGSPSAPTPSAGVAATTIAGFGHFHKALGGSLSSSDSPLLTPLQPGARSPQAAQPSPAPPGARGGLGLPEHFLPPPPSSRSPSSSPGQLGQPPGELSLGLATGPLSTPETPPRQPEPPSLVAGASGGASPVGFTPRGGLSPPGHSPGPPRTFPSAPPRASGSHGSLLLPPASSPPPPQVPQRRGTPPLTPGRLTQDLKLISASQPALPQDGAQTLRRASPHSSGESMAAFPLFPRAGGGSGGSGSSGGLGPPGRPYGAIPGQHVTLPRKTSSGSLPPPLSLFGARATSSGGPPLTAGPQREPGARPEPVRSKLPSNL

hERG = hERG (Homo sapiens, UniProt Q12809); assay: cell-based
Nav1.5 = Nav1.5 (Homo sapiens, UniProt Q14524); assay: cell-based
Nav1.5, sequence (Q14524 whole entry): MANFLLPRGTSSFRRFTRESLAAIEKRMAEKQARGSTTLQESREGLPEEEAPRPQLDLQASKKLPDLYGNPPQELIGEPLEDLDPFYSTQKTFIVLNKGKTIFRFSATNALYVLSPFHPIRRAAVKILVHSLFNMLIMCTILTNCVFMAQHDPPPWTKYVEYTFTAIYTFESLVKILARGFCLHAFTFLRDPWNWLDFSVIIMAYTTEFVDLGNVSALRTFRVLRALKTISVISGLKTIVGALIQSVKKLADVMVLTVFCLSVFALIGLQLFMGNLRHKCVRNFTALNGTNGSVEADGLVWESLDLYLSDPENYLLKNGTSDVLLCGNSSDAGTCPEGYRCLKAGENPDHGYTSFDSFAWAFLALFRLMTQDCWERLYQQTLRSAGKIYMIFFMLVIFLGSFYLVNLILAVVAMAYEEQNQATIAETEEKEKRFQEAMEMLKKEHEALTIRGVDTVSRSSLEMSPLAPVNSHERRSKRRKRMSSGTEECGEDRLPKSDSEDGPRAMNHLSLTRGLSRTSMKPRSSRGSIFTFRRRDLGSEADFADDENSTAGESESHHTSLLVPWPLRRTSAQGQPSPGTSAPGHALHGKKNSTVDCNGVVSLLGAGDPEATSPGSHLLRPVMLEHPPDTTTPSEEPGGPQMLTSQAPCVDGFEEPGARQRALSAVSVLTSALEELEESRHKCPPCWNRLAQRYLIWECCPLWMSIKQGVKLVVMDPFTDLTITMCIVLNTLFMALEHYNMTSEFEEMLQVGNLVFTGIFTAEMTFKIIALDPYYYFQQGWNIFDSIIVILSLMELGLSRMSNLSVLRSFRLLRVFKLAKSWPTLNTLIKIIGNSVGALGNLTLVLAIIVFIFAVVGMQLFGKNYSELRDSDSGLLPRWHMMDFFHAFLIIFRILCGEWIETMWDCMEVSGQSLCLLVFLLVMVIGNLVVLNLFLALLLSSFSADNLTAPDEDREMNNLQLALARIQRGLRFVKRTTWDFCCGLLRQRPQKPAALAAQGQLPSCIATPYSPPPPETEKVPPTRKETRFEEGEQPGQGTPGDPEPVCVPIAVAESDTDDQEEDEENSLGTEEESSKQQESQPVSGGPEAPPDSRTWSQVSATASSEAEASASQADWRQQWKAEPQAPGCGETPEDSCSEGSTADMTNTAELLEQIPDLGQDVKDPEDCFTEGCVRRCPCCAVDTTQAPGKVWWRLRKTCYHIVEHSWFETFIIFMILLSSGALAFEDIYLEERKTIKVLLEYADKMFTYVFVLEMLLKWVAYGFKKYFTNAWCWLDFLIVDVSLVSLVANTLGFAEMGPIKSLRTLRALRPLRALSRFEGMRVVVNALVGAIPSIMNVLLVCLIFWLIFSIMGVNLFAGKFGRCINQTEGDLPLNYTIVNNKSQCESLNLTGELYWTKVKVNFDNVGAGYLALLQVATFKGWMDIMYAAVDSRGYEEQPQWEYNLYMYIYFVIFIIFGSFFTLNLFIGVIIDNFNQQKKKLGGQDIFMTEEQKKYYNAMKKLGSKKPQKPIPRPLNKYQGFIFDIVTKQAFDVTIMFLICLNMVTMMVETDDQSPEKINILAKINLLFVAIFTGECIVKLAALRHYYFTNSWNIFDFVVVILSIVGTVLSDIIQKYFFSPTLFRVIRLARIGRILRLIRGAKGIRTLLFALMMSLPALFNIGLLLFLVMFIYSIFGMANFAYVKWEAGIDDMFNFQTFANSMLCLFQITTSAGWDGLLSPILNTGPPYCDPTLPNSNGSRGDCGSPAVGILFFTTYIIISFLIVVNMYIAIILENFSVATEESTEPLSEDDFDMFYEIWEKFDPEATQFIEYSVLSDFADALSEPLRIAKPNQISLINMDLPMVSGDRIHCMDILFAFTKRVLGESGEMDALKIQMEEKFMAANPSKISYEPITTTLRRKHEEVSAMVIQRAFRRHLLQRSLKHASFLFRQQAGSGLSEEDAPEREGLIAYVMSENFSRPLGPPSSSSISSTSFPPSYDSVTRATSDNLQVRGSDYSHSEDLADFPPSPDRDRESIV

TASK-1 (K2P3.1), wild type, sequence (O14649 whole entry): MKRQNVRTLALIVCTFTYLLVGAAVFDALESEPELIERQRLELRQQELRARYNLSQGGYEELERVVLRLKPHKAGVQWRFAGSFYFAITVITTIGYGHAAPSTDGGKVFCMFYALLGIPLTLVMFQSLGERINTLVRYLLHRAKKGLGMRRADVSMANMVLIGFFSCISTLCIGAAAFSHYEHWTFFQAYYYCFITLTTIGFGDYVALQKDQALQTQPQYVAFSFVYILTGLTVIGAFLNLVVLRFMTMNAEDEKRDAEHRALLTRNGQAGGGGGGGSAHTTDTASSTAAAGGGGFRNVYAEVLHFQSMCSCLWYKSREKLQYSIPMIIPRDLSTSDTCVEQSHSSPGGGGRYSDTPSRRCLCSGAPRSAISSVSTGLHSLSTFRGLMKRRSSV
TRPV4, sequence (Q9HBA0 whole entry): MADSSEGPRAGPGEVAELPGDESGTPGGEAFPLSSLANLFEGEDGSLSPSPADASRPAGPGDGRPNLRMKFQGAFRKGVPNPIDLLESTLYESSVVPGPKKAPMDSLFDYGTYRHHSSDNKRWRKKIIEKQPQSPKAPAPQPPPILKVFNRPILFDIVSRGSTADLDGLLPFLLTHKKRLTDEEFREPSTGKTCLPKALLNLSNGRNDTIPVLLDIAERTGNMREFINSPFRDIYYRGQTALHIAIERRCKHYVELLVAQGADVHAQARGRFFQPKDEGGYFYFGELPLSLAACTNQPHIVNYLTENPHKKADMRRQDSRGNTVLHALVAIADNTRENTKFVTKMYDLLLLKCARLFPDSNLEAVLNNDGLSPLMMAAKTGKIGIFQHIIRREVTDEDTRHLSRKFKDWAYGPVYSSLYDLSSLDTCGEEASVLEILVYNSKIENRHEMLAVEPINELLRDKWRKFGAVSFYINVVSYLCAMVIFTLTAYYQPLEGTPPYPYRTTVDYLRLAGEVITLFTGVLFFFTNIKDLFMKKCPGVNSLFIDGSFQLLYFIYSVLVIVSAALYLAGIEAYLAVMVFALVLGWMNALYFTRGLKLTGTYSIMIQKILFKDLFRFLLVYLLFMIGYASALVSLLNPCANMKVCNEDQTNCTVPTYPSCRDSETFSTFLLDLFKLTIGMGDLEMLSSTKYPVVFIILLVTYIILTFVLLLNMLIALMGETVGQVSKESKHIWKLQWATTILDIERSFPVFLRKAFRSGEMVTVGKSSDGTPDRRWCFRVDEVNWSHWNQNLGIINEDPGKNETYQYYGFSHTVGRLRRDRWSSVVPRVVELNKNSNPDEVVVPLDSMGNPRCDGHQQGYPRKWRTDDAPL
hERG, sequence (Q12809 whole entry): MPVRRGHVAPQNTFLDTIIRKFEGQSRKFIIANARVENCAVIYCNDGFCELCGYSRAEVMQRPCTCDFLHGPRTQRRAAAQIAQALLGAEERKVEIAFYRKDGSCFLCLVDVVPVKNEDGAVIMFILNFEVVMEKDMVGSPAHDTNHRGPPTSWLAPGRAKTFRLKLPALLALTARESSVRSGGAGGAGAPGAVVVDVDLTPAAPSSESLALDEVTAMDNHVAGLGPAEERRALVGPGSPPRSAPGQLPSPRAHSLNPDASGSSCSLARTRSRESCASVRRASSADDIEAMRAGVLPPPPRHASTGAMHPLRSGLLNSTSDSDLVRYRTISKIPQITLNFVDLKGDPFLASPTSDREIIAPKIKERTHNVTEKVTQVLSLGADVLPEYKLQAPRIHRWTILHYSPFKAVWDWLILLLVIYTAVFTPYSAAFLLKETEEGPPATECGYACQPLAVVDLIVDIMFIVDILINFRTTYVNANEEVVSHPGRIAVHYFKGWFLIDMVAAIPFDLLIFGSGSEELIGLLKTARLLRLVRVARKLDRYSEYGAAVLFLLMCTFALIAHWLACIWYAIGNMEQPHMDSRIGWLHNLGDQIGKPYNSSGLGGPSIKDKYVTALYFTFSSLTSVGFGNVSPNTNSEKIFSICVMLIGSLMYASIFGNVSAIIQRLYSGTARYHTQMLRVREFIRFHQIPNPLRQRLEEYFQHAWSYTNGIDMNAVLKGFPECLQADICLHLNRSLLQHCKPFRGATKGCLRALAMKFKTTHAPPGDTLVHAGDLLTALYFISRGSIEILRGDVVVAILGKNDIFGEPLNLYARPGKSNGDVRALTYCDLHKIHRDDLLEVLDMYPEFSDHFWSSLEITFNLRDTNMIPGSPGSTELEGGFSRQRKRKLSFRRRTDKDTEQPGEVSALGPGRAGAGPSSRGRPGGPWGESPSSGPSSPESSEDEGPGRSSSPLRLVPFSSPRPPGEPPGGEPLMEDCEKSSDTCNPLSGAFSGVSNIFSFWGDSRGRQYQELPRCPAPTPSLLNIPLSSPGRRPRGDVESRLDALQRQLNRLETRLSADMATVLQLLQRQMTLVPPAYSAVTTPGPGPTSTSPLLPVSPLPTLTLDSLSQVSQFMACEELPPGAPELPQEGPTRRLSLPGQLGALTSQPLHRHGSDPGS

In the case of `O=C(c1ccccc1F)N1CCN(Cc2c(-c3ccc(Br)cc3)nc3ccccn23)CC1` [BAY 1000493, (4-{[2-(4-bromophenyl)imidazo[1,2-a]pyridin-3-yl]methyl}vpiperazin-1-yl)(2-fluorophenyl)methanone], the EC50 [1] is reported as 0.0095 µM, the IC50 (EAG1) is reported as over 30 µM and the IC50 (TRPA1) is reported as over 30 µM. It also gave an IC50 (TRPV4) of over 30 µM, an IC50 (HCN4) of over 30 µM and an IC50 (hERG) of 2.4 µM. For the same compound, the IC50 (Nav1.5) was over 30 µM.
